± gives the expanded uncertainty stated by the source.
Details: 101.33 kPa, Liquid, Vibrating tube method

Row | SMILES | mass density (293.15 K) [kg/m3] | mass density (298.15 K) [kg/m3] | mass density (303.15 K) [kg/m3] | mass density (308.15 K) [kg/m3] | mass density (313.15 K) [kg/m3] | mass density (318.15 K) [kg/m3] | mass density (323.15 K) [kg/m3]
1 | CC(C)CO [2-methyl-1-propanol] | 801.85 ± 4 | 797.99 ± 4 | 794.03 ± 4 | 790.09 ± 4 | 786.12 ± 4 | 781.97 ± 4 | 777.86 ± 4
2 | CC(C)(C)O [2-methylpropan-2-ol] | – | 780.61 ± 4 | 775.42 ± 4 | 770.21 ± 4 | 764.92 ± 4 | 759.42 ± 4 | 753.95 ± 4
3 | CCCCO [butan-1-ol] | 809.77 ± 4 | 805.92 ± 4 | 802 ± 4 | 798.14 ± 4 | 794.24 ± 4 | 790.2 ± 4 | 786.21 ± 4
4 | CCO [ethanol] | 789.4 ± 4 | 785.13 ± 4 | 780.75 ± 4 | 776.41 ± 4 | 772.04 ± 4 | 767.52 ± 4 | 763.04 ± 4
5 | CCCO [propan-1-ol] | 803.77 ± 4 | 799.69 ± 4 | 795.58 ± 4 | 791.52 ± 4 | 787.42 ± 4 | 783.17 ± 4 | 778.96 ± 4
6 | CC(C)O [propan-2-ol] | 785.1 ± 4 | 780.91 ± 4 | 776.57 ± 4 | 772.24 ± 4 | 767.82 ± 4 | 763.19 ± 4 | 758.55 ± 4
